Values after ≈ are worked out from the molar mass of the structure shown. Peptide text beside a SMILES is read from it. * marks the point of attachment. Myristoyl = CCCCCCCCCCCCCC(=O)*; Lauroyl = CCCCCCCCCCCC(=O)*; Decanoyl = CCCCCCCCCC(=O)*; Octanoyl = CCCCCCCC(=O)*; Hexanoyl = CCCCCC(=O)*
How the values were obtained:
[1] = test system: Escherichia coli; assay: Antibacterial activity against Escherichia coli DSM 30083 assessed as growth inhibition after 18 hrs; type: functional; details: DSM 30083, 18 h
[2] = test system: Bacillus subtilis; assay: Bactericidal activity against Bacillus subtilis 168 (trpC2)2 assessed as survival rate at twice MIC concentration incubated for 15 mins measured after 18 hrs; type: functional, subsp. subtilis str. 168 (trpC2)2
[3] = test system: Acinetobacter baumannii; assay: Antibacterial activity against Acinetobacter baumannii DSM 30007 assessed as growth inhibition after 18 hrs; type: functional; details: DSM 30007, 18 h
[4] = test system: Bacillus subtilis; assay: Antibacterial activity against Bacillus subtilis 168 DSM 402 assessed as growth inhibition after 18 hrs; type: functional; details: subsp. subtilis str. 168 DSM 402, 18 h
[5] = test system: Staphylococcus aureus; assay: Antibacterial activity against Staphylococcus aureus ATCC 43300 assessed as growth inhibition after 18 hrs; type: functional; details: ATCC 43300, 18 h
[6] = test system: Staphylococcus aureus; assay: Antibacterial activity against Staphylococcus aureus DSM 20231 assessed as growth inhibition after 18 hrs; type: functional; details: DSM 20231, 18 h
[7] = test system: Pseudomonas aeruginosa; assay: Antibacterial activity against Pseudomonas aeruginosa DSM 50071 assessed as growth inhibition after 18 hrs; type: functional; details: DSM 50071, 18 h
[8] = Hemolytic activity against human RBC assessed as hemoglobin leakage at 250 ug/ml; type: ADME, cell-based, Erythrocyte; details: human red blood cells, read-out: Activity
[9] = test system: MCF7; assay: Cytotoxicity against human MCF7 cells assessed as inhibition of cell viability after 48 hrs by crystal violet assay; type: functional, cell-based; details: MCF7, 48 h
[10] = test system: HT-29; assay: Cytotoxicity against human HT-29 cells assessed as inhibition of cell viability after 48 hrs by crystal violet assay; type: functional, cell-based; details: HT-29, 48 h
[11] = Hemolytic activity against human RBC assessed as hemoglobin leakage; type: ADME, cell-based, Erythrocyte; details: human red blood cells
[12] = test system: MCF7; assay: Selectivity index, ratio of IC50 for human GM5657 cells to IC50 for human MCF7 cells; type: functional
[13] = Hemolytic activity against human RBC assessed as hemoglobin leakage at 500 ug/ml after 5 mins; type: ADME, cell-based, Erythrocyte; details: human red blood cells, read-out: Activity
[14] = Selectivity index, ratio of IC50 for human GM5657 cells to IC50 for human HT29 cells; type: functional
[15] = Ratio of IC50 for human GM5657 cells to MIC for Staphylococcus aureus DSM 20231; type: functional
[16] = Cytotoxicity against human GM5657 cells assessed as inhibition of cell viability after 48 hrs by crystal violet assay; type: cell-based; details: GM5657, 48 h

Structure (SMILES)	MIC [1] [µM]	Survival [2] [%]	MIC [3] [µM]	MIC [4] [µM]	MIC [5] [µM]	MIC [6] [µM]	MIC [7] [µM]	hemolysis at 250 ug/ml [8] [%]	IC50 [9] [µM]	IC50 [10] [µM]	HC50 [11] [µM]	Ratio IC50 [12]	hemolysis at 5 min, 500 ug/ml [13] [%]	Ratio IC50 [14]	Ratio IC50 [15]	IC50 [16] [µM]
CCCCCCCCCC(=O)NCCCC[C@H](N)C(=O)N[C@@H](CCCNC(=N)N)C(=O)N[C@@H](Cc1c[nH]c2ccccc12)C(=O)N[C@@H](CCCNC(=N)N)C(=O)N[C@@H](Cc1c[nH]c2ccccc12)C(=O)N[C@@H](CCCNC(=N)N)C(=O)N[C@@H](Cc1c[nH]c2ccccc12)C(N)=O (H-K(Decanoyl)RWRWRW-NH2)	5 (≈ 6.63 µg/mL)	0.016	9 (≈ 11.9 µg/mL)	2 (≈ 2.65 µg/mL)	1 (≈ 1.33 µg/mL)	2 (≈ 2.65 µg/mL)	9 (≈ 11.9 µg/mL)	> 50								
N=C(N)NCCC[C@H](NC(=O)[C@H](Cc1c[nH]c2ccccc12)NC(=O)[C@H](CCCNC(=N)N)NC(=O)[C@H](Cc1c[nH]c2ccccc12)NC(=O)[C@@H](N)CCCNC(=N)N)C(=O)N[C@@H](Cc1c[nH]c2ccccc12)C(=O)N[C@@H](CCCCN)C(N)=O (H-RWRWRWK-NH2)	18 (≈ 21.1 µg/mL)		> 100	5 (≈ 5.86 µg/mL)	18 (≈ 21.1 µg/mL)	37 (≈ 43.4 µg/mL)	> 100	< 10								
N=C(N)NCCC[C@H](NC(=O)[C@H](Cc1c[nH]c2ccccc12)NC(=O)[C@H](CCCNC(=N)N)NC(=O)[C@H](Cc1c[nH]c2ccccc12)NC(=O)[C@H](CCCNC(=N)N)NC(=O)[C@@H](N)CCCCN)C(=O)N[C@@H](Cc1c[nH]c2ccccc12)C(N)=O (H-KRWRWRW-NH2)	18 (≈ 21.1 µg/mL)	7	> 100	2 (≈ 2.34 µg/mL)	9 (≈ 10.6 µg/mL)	37 (≈ 43.4 µg/mL)	> 100	< 10								
CC(=O)NCCCC[C@H](N)C(=O)N[C@@H](CCCNC(=N)N)C(=O)N[C@@H](Cc1c[nH]c2ccccc12)C(=O)N[C@@H](CCCNC(=N)N)C(=O)N[C@@H](Cc1c[nH]c2ccccc12)C(=O)N[C@@H](CCCNC(=N)N)C(=O)N[C@@H](Cc1c[nH]c2ccccc12)C(N)=O (H-K(Ac)RWRWRW-NH2)	> 100		> 100	10 (≈ 12.1 µg/mL)	> 100	> 100	> 100	< 10								
CCCCCCCCCCCC(=O)NCCCC[C@H](N)C(=O)N[C@@H](CCCNC(=N)N)C(=O)N[C@@H](Cc1c[nH]c2ccccc12)C(=O)N[C@@H](CCCNC(=N)N)C(=O)N[C@@H](Cc1c[nH]c2ccccc12)C(=O)N[C@@H](CCCNC(=N)N)C(=O)N[C@@H](Cc1c[nH]c2ccccc12)C(N)=O (H-K(Lauroyl)RWRWRW-NH2)	9 (≈ 12.2 µg/mL)	0.011	18 (≈ 24.4 µg/mL)	9 (≈ 12.2 µg/mL)	2 (≈ 2.71 µg/mL)	4 (≈ 5.42 µg/mL)	> 100	> 50								
CCCCCC(=O)NCCCC[C@H](NC(=O)[C@H](Cc1c[nH]c2ccccc12)NC(=O)[C@H](CCCNC(=N)N)NC(=O)[C@H](Cc1c[nH]c2ccccc12)NC(=O)[C@H](CCCNC(=N)N)NC(=O)[C@H](Cc1c[nH]c2ccccc12)NC(=O)[C@@H](N)CCCNC(=N)N)C(N)=O (H-RWRWRWK(Hexanoyl)-NH2)	19 (≈ 24.1 µg/mL)	0.687	19 (≈ 24.1 µg/mL)	2 (≈ 2.54 µg/mL)	9 (≈ 11.4 µg/mL)	18 (≈ 22.9 µg/mL)	74 (≈ 94 µg/mL)	< 10								
CCCCCCCCCCCCCC(=O)NCCCC[C@H](NC(=O)[C@H](Cc1c[nH]c2ccccc12)NC(=O)[C@H](CCCNC(=N)N)NC(=O)[C@H](Cc1c[nH]c2ccccc12)NC(=O)[C@H](CCCNC(=N)N)NC(=O)[C@H](Cc1c[nH]c2ccccc12)NC(=O)[C@@H](N)CCCNC(=N)N)C(N)=O (H-RWRWRWK(Myristoyl)-NH2)	17 (≈ 23.5 µg/mL)	0	9 (≈ 12.4 µg/mL)	4 (≈ 5.53 µg/mL)	2 (≈ 2.77 µg/mL)	2 (≈ 2.77 µg/mL)	70 (≈ 96.8 µg/mL)	> 50								
CCCCCCCC(=O)NCCCC[C@H](NC(=O)[C@H](Cc1c[nH]c2ccccc12)NC(=O)[C@H](CCCNC(=N)N)NC(=O)[C@H](Cc1c[nH]c2ccccc12)NC(=O)[C@H](CCCNC(=N)N)NC(=O)[C@H](Cc1c[nH]c2ccccc12)NC(=O)[C@@H](N)CCCNC(=N)N)C(N)=O (H-RWRWRWK(Octanoyl)-NH2)	2 (≈ 2.6 µg/mL)	0.261	5 (≈ 6.49 µg/mL)	0.6 (≈ 0.779 µg/mL)	2 (≈ 2.6 µg/mL)	2 (≈ 2.6 µg/mL)	18 (≈ 23.4 µg/mL)	10	4.7	4.5	285	7	48	7	15	31.3

From ChEMBL document CHEMBL2203177, “Tuning the activity of a short arg-trp antimicrobial Peptide by lipidation of a C- or N-terminal lysine side-chain” (ACS Med Chem Lett, 2012)
